Test results from PMC5225172 (Cancer Chemotherapy and Pharmacology, 2016).

How the values were obtained:
[1] = Phase I safety and tolerability: adverse events (NCI CTCAE v4.03), DLT, MTD; conditions: human, in vivo, iv
Experimental: (§1) Dosing on days 8 and 15 was permitted within a window of ±1 day if necessary, and dosing was considered missed if delayed by more than 1 day. Dose delays of up to 2 weeks were permitted for day 1 of cycle 2 or later, although for days 8 and 15 of cycle 2 and subsequent cycles, dosing within a window of ±3 days was permitted, except for in cycle 3, where dosing was to be administered within ±1 day of days 8 and 15.
(§2) Patients were enrolled into cohort 1 and were evaluated for the occurrence of a dose-limiting toxicity (DLT) as defined by the National Cancer Institute Common Terminology Criteria for Adverse Events version 4.03. […] Completion of cycle 1 in cohort 1 constituted study completion.
(§3) Protocol-defined DLTs included non-hematologic adverse events of grade ≥3. Hyperglycemia defined as a DLT was to be determined based on serum glucose values. Hematologic DLTs were defined as grade 4 neutropenia for ≥3 days, an absolute neutrophil count <1000 with fever ≥38.5 °C, and grade 4 thrombocytopenia. Patients with non-hematologic DLTs were to discontinue study treatment.
(§4) Screening comprised: provision of written, informed consent; demographics; baseline characteristics; concomitant medications; safety assessments (adverse events [defined as any new finding not present in the patient’s medical history, or a worsening of a prior medical history finding], vital signs, laboratory tests, physical examination, 12-lead electrocardiogram, multigated acquisition scan, or echocardiogram); tumor measurements by computed tomography or magnetic resonance imaging; disease assessment as defined by RECIST version 1.1; ophthalmologic examination; chest computed tomography; and ECOG PS assessment. The following assessments were also performed on cycle 1, day 1: safety; ECOG PS assessment; concomitant medications; blood samples for PK analysis; serum samples for glucose analysis; serum insulin; urinalysis; serum ketones; and post-dose echocardiogram. Safety assessments, blood pressure measurements, blood sampling for PK analysis, and urinalysis were also performed on days 8 and 15 of cycle 1.

[2] = tested on: Japanese patients with advanced or refractory solid tumors; experiment: as above
Experimental: as §1, §2, §3, §4

clinical = conditions: human, in vivo
Experimental: Additional PK samples were collected at either 72, 96, or 120 h following the start of infusion. […] Blood pressure monitoring was performed every 5 min before dosing on cycle 1, day 1 until the observation of two consecutive measurements <150 mmHg (systolic) and <90 mmHg (diastolic). […] Serum samples for glucose analysis were collected immediately before the first infusion and in parallel with PK sampling through to 49 h post-dose. Glucose samples taken at 25 h post-dose were to be fasting, where possible and if deemed safe. Capillary blood glucose testing was to be performed for hyperglycemia management as determined appropriate by the investigator; hyperglycemia was defined as capillary blood glucose >200 mg/dL and was to be treated with short-acting insulin. Tumor measurement and disease assessment according to RECIST version 1.1 were conducted every two cycles by the investigator. This study was primarily a descriptive safety and tolerability trial, and no formal sample-size estimation was performed. Summary statistics were used for demographics, baseline characteristics, and PK parameters. Frequency tables were used for categorical variables.

[3] = tested on: advanced solid tumors and non-Hodgkin's lymphoma; parameters: method as in PMID 27672108; conditions: cited from earlier work
class I PI3K = conditions: compared with the p110β and p110γ isoforms; cited from earlier work
[4] = tested on: patients with advanced solid tumors and non-Hodgkin's lymphomas; conditions: cited from earlier work

SMILES: COc1c(OCCCN2CCOCC2)ccc2c1N=C(NC(=O)c1cnc(N)nc1)N1CCN=C21 [copanlisib, Copanlisib]
- MTD at 28 days [1]: 0.8 mg/kg
- Treatment-emergent AE of all grades, irrespective of causality: Flu-like symptoms ([2]; Cohort 1, 0.4 mg/kg (n = 3)): 0 n (%)
- Treatment-emergent AE of all grades, irrespective of causality: Flu-like symptoms ([2]; Cohort 2, 0.8 mg/kg (n = 7)): 2 (28.6) n (%)
- Treatment-emergent AE of all grades, irrespective of causality: Flu-like symptoms ([2]; Total (N = 10)): 2 (20.0) n (%)
- AEs leading to permanent discontinuation of study drug ([2]; human, in vivo): 2 (20.0) n (%)
- Adverse events leading to study discontinuation ([2]; human, in vivo): 20.0%
- Any AE ([2]; human, in vivo): 10 (100) n (%)
- Any drug-related AE ([2]; human, in vivo): 10 (100) n (%)
- Any serious AE ([2]; human, in vivo): 3 (30.0) n (%)
- Grade 3 AE ([2]; human, in vivo): 5 (50.0) n (%)
- Grade 3 drug-related AE ([2]; human, in vivo): 2 (20.0) n (%)
- Grade 3 hypertension ([2]; human, in vivo): no reports of grade 3 hypertension
- Grade 4 AE ([2]; human, in vivo): 1 (10.0) n (%)
- Hematologic and biochemical toxicity event: anemia ([2]; human, in vivo): 90.0%
- Hematologic and biochemical toxicity event: hypoalbuminemia ([2]; human, in vivo): 90.0%
- Hematologic and biochemical toxicity event: lymphocytopenia ([2]; human, in vivo): 90%
- TEAE of all grades irrespective of causality: constipation ([2]; human, in vivo): 50.0%
- TEAE of all grades irrespective of causality: hyperglycemia ([2]; human, in vivo): 80.0%
- TEAEs of grade 3 as worst grade ([2]; human, in vivo): 50.0%
- TEAEs of grade 3 as worst grade considered drug-related ([2]; human, in vivo): 20.0%
- Treatment-emergent AE of all grades, irrespective of causality: Acneiform rash ([2]; human, in vivo): 3 (30.0) n (%)
- Treatment-emergent AE of all grades, irrespective of causality: Anemia ([2]; human, in vivo): 3 (30.0) n (%)
- Treatment-emergent AE of all grades, irrespective of causality: Anorexia ([2]; human, in vivo): 3 (30.0) n (%)
- Treatment-emergent AE of all grades, irrespective of causality: Constipation ([2]; human, in vivo): 5 (50.0) n (%)
- Treatment-emergent AE of all grades, irrespective of causality: Cough ([2]; human, in vivo): 2 (20.0) n (%)
- Treatment-emergent AE of all grades, irrespective of causality: Fever ([2]; human, in vivo): 4 (40.0) n (%)
- Treatment-emergent AE of all grades, irrespective of causality: Hyperglycemia ([2]; human, in vivo): 8 (80.0) n (%)
- Treatment-emergent AE of all grades, irrespective of causality: Hypertension ([2]; human, in vivo): 7 (70.0) n (%)
- Treatment-emergent AE of all grades, irrespective of causality: Increased ALP ([2]; human, in vivo): 4 (40.0) n (%)
- Treatment-emergent AE of all grades, irrespective of causality: Increased ALT ([2]; human, in vivo): 3 (30.0) n (%)
- Treatment-emergent AE of all grades, irrespective of causality: Increased AST ([2]; human, in vivo): 2 (20.0) n (%)
- Treatment-emergent AE of all grades, irrespective of causality: Insomnia ([2]; human, in vivo): 2 (20.0) n (%)
- Treatment-emergent AE of all grades, irrespective of causality: Investigations, other ([2]; human, in vivo): 4 (40.0) n (%)
- Treatment-emergent AE of all grades, irrespective of causality: Leukopenia ([2]; human, in vivo): 4 (40.0) n (%)
- Treatment-emergent AE of all grades, irrespective of causality: Lymphocytopenia ([2]; human, in vivo): 4 (40.0) n (%)
- Treatment-emergent AE of all grades, irrespective of causality: Malaise ([2]; human, in vivo): 2 (20.0) n (%)
- Treatment-emergent AE of all grades, irrespective of causality: Nausea ([2]; human, in vivo): 3 (30.0) n (%)
- Treatment-emergent AE of all grades, irrespective of causality: Neutropenia ([2]; human, in vivo): 4 (40.0) n (%)
- Treatment-emergent AE of all grades, irrespective of causality: Oral mucositis ([2]; human, in vivo): 2 (20.0) n (%)
- Treatment-emergent AE of all grades, irrespective of causality: Pruritus ([2]; human, in vivo): 2 (20.0) n (%)
- Treatment-emergent AE of all grades, irrespective of causality: Tumor pain ([2]; human, in vivo): 4 (40.0) n (%)
- AEs leading to dose modification ([2]; human, in vivo, 28 days): 1 (33.3) n (%)
- Patients with dose-limiting toxicity (DLT) ([2]; human, in vivo, 28 days): No patients treated at 0.4 mg/kg experienced a dose-limiting toxicity
- Cases of colitis ([2]; in vivo): no cases of colitis
- Deaths on study ([2]; in vivo): No deaths on study were reported
- Hematologic and biochemical toxicity event: hyperglycemia ([2]; in vivo): all ten patients
- Hematologic and biochemical toxicity event: increased creatinine ([2]; in vivo): all ten patients
- Patients with dose-limiting toxicity (DLT) ([2]; in vivo): No patients experienced DLTs
- Patients with grade ≥3 elevated aminotransferase levels ([2]; in vivo): Two patients
- Relationship to study drug: grade 3 Anemia ([2]; in vivo): Not likely to be related
- Relationship to study drug: grade 3 Diarrhea ([2]; in vivo): Possibly related
- Relationship to study drug: grade 3 Hepatobiliary disorder ([2]; in vivo): Not likely to be related
- Relationship to study drug: grade 3 Hyperglycemia ([2]; in vivo): Possibly related
- Relationship to study drug: grade 3 Increased ALP ([2]; in vivo): Not likely to be related
- Relationship to study drug: grade 3 Increased ALT ([2]; in vivo): Not likely to be related
- Relationship to study drug: grade 3 Insomnia ([2]; in vivo): Not likely to be related
- Relationship to study drug: grade 3 Lymphocytopenia ([2]; in vivo): Possibly related
- Relationship to study drug: grade 3 Stroke ([2]; in vivo): Not likely to be related
- Relationship to study drug: grade 4 Increased AST ([2]; in vivo): Not likely to be related
- Grade 5 adverse events ([2]; irrespective of causality): No grade 5 adverse events were reported
- half-life (clinical; 0.4 mg/kg, Geometric mean terminal half-life): ~1920 min
- half-life (clinical; 0.8 mg/kg, Geometric mean terminal half-life): ~2160 min
- half-life (clinical; 0.8 mg/kg, Plasma half-life): 1920 to 2160 min
- AUC (clinical; iv, 0.4 mg/kg): 1400 ng·h/mL
- AUC(0-t) (clinical; iv, 0.4 mg/kg, AUC(0–8)): 483 ng·h/mL
- AUC(0-t) (clinical; iv, 0.4 mg/kg, AUC(0–25)): 789 ng·h/mL
- Cmax (clinical; iv, 0.4 mg/kg, C max): 215 ng/mL
- half-life (clinical; iv, 0.4 mg/kg, t 1/2 (half-life associated with terminal slope)): 1930 min
- Tmax (clinical; iv, 0.4 mg/kg, tmax): 61.2 min
- AUC (clinical; iv, 0.8 mg/kg): 2350 ng·h/mL
- AUC(0–25) (clinical; iv, 0.8 mg/kg): 1290 (10.1) µg·h/L
- Tmax (clinical; iv, 0.8 mg/kg): 0.75 [0.48-1.05] h
- AUC(0-t) (clinical; iv, 0.8 mg/kg, AUC(0–8)): 812 ng·h/mL
- AUC(0-t) (clinical; iv, 0.8 mg/kg, AUC(0–25)): 1280 ng·h/mL
- half-life (clinical; iv, 0.8 mg/kg, t1/2 (half-life associated with terminal slope)): 2140 min
- Tmax (clinical; iv, 0.8 mg/kg, tmax): 31.8 min
- Objective response rate ([3]; 25 patients in solid-tumor expansion cohort treated at the MTD): 12%
- Disease control rate ([3]; advanced solid-tumor expansion cohort): 44%
- Antitumor activity in patients with non-Hodgkin's lymphoma ([3]; first-in-human study): seven out of nine patients
- PI3K isoform preference (class I PI3K): preferential activity against the p110α and p110δ isoforms of PI3K
- Grade 3 hypertension ([4]; Patnaik et al. study): 19%
- Incidence of all-grade hypertension ([4]; Patnaik et al. study): 30%
- Maximum tolerated dose (MTD) ([4]; first-in-human Phase I study, non-Japanese patients, once weekly): 0.8 mg/kg
- Patients with grade ≥3 elevated aminotransferase levels ([4]; first-in-human study): < 10%
- Time of hyperglycemia peak after the start of infusion ([4]; first-in-human study): 5 to 8 h
- Time of hypertension peak after the start of infusion ([4]; first-in-human study): 1 to 2 h
